According to ChEMBL document CHEMBL2311351, “Synthesis and biological evaluation of triazolothienopyrimidine derivatives as novel HIV-1 replication inhibitors” (Bioorg Med Chem Lett, 2013):

What was measured:
[1] = Therapeutic index, ratio of CC50 for human CEmx174 cells expressing LTR-GFP to EC50 for HIV1 LAI; conditions: read-out: Ratio CC50/EC50
[2] = tested on: Human immunodeficiency virus 1; assay: Antiviral activity against HIV1 LAI infected in CEMx174-LTR-GFP cells assessed as inhibition of viral replication after 5 days by fluorescence assay; assay type: functional, organism-based
[3] = Cytotoxicity against human CEmx174 cells expressing LTR-GFP; assay type: cell-based
[4] = tested on: Human immunodeficiency virus 1; assay: Antiviral activity against HIV1 LAI infected in CEMx174-LTR-GFP cells assessed as inhibition of viral replication at 10 uM after 5 days by fluorescence assay; assay type: functional; conditions: Human immunodeficiency virus 1, LAI, 120 h
[5] = Human immunodeficiency virus 1, LAI, 120 h, read-out: EC50

Row | SMILES | selectivity ratio [1] | EC50 [2, 5] [µM] | CC50 [3] [µM] | EC50 [2] | inhibition at 10 µM [4] [%]
1 | COc1ccccc1-c1nc2c(S(=O)(=O)c3cccc(Cl)c3)nnn2c2ccsc12 | 34 | 1.3 | 45 | – | –
2 | Cc1ccc(-c2nc3c(S(=O)(=O)c4cccc(Cl)c4)nnn3c3ccsc23)cc1 | 72 | 0.84 | 61 | – | –
3 | O=S(=O)(c1cccc(Br)c1)c1nnn2c1nc(N1CCOCC1)c1sccc12 | > 15 | 3.3 | > 50 | – | –
4 | COc1cccc(-c2nc3c(S(=O)(=O)c4cccc(Cl)c4)nnn3c3ccsc23)c1 | 143 | 0.32 | 46 | – | –
5 | O=C(Nc1cccc(Cl)c1)c1nnn2c1nc(N1CCOCC1)c1sccc12 | > 135 | 0.37 | > 50 | – | –
6 | O=S(=O)(c1cccc(Cl)c1)c1nnn2c1nc(N1CCN(Cc3ccccc3)CC1)c1sccc12 | > 70 | 0.71 | > 50 | – | –
7 | Nc1nc2c(S(=O)(=O)c3cccc(Cl)c3)nnn2c2ccsc12 | > 31 | 1.6 | > 50 | – | –
8 | CCS(=O)(=O)c1nnn2c1nc(N1CCOCC1)c1sccc12 | – | – | > 50 | Not Active | –
9 | O=S(=O)(c1cccc(Cl)c1)c1nnn2c1nc(-c1cccc(Cl)c1)c1sccc12 | 87 | 0.54 | 47 | – | –
10 | Cc1ccc(S(=O)(=O)c2nnn3c2nc(NCCC(C)C)c2sccc23)cc1C | – | 9.84 | – | – | –
11 | O=S(=O)(c1cccc(Cl)c1)c1nnn2c1nc(N1CCOCC1)c1sccc12 | 274 | 0.27 | 74 | – | –
12 | O=S(=O)(c1cccc(Cl)c1)c1nnn2c1nc(N1CCCCC1)c1sccc12 | 394 | 0.19 | 75 | – | –
13 | O=S(=O)(c1cccc(F)c1)c1nnn2c1nc(N1CCOCC1)c1sccc12 | > 58 | 0.85 | > 50 | – | –
14 | CCOC(=O)c1nnn2c1nc(N1CCOCC1)c1sccc12 | > 62 | 0.8 | > 50 | – | –
15 | O=C(Nc1ccccc1Cl)c1nnn2c1nc(N1CCOCC1)c1sccc12 | > 14 | 3.5 | > 50 | – | –
16 | O=S(=O)(c1ccccc1)c1nnn2c1nc(N1CCOCC1)c1sccc12 | 2.4 | 16 | 39 | – | –
17 | O=S(=O)(c1cccc(Cl)c1)c1nnn2c1nc(NC1CCCCC1)c1sccc12 | > 7.4 | 6.7 | > 50 | – | –
18 | CC(C)Nc1nc2c(S(=O)(=O)c3cccc(Cl)c3)nnn2c2ccsc12 | > 22 | 2.2 | > 50 | – | –
19 | O=S(=O)(c1nnn2c1nc(N1CCOCC1)c1sccc12)C1CCCCC1 | – | – | > 50 | Not Active | –
20 | O=S(=O)(c1cccc(Cl)c1)c1nnn2c1nc(-c1ccccc1Cl)c1sccc12 | > 74 | 0.67 | > 50 | – | –
21 | COc1ccc(-c2nc3c(S(=O)(=O)c4cccc(Cl)c4)nnn3c3ccsc23)cc1 | 1000 | 0.06 | 60 | – | –

Row | SMILES | selectivity ratio [1] | EC50 [2, 5] [µM] | CC50 [3] [µM] | EC50 [2] | inhibition at 10 µM [4] [%]
22 | O=S(=O)(c1ccccc1Cl)c1nnn2c1nc(N1CCOCC1)c1sccc12 | 50 | 1.1 | 56 | – | –
23 | CCOc1ccc(-c2nc3c(S(=O)(=O)c4cccc(Cl)c4)nnn3c3ccsc23)cc1 | 119 | 0.51 | 61 | – | –
24 | O=S(=O)(c1cccc(Cl)c1)c1nnn2c1nc(Nc1ccccc1)c1sccc12 | > 21 | 2.3 | > 50 | – | –
25 | O=S(=O)(c1cccc(Cl)c1)c1nnn2c1nc(-c1ccc(Cl)cc1)c1sccc12 | 86 | 0.53 | 46 | – | –
26 | O=S(=O)(c1cc(Cl)cc(Cl)c1)c1nnn2c1nc(N1CCOCC1)c1sccc12 | 12.7 | 4 | 51 | – | –
27 | O=S(=O)(c1cccc(Cl)c1)c1nnn2c1nc(-c1ccc(O)cc1)c1sccc12 | 11 | 0.87 | 10 | – | –
28 | O=S(=O)(c1ccc(Cl)cc1)c1nnn2c1nc(N1CCOCC1)c1sccc12 | 14 | 5 | 70 | – | –
29 | CN(C)c1ccc(-c2nc3c(S(=O)(=O)c4cccc(Cl)c4)nnn3c3ccsc23)cc1 | > 16 | 3.1 | > 50 | – | –
30 | O=C(c1cccc(Cl)c1)c1nnn2c1nc(N1CCOCC1)c1sccc12 | > 53 | 0.93 | > 50 | – | –
31 | Cc1ccnc2c1NC(=O)c1cccnc1N2C1CC1 [NEVIRAPINE] | – | 0.15 | > 10 | – | –
32 | O=C(Nc1ccc(Cl)cc1)c1nnn2c1nc(N1CCOCC1)c1sccc12 | 3.5 | 16 | 57 | – | –
33 | COCCNc1nc2c(S(=O)(=O)c3cccc(Cl)c3)nnn2c2ccsc12 | > 26 | 1.9 | > 50 | – | –
34 | O=S(=O)(c1cccc(OC(F)(F)F)c1)c1nnn2c1nc(N1CCOCC1)c1sccc12 | > 5 | 10 | > 50 | – | –
35 | COc1cccc(S(=O)(=O)c2nnn3c2nc(N2CCOCC2)c2sccc23)c1 | > 45 | 1.1 | > 50 | – | –
36 | O=S(=O)(c1cccc(Cl)c1)c1nnn2c1nc(-c1ccccc1)c1sccc12 | 225 | 0.27 | 61 | – | –
37 | O=C(O)c1nnn2c1nc(N1CCOCC1)c1sccc12 | 8.7 | 4.8 | 42 | – | –
38 | O=S(=O)(c1cccc(Cl)c1)c1nnn2c1nc(N1CCCCCC1)c1sccc12 | 8.7 | 4 | 35 | – | –
39 | CN(c1ccccc1)c1nc2c(S(=O)(=O)c3cccc(Cl)c3)nnn2c2ccsc12 | > 23 | 2.1 | > 50 | – | –
40 | CN1CCN(c2nc3c(S(=O)(=O)c4cccc(Cl)c4)nnn3c3ccsc23)CC1 | > 23 | 2.1 | > 50 | – | –
41 | CC(C)CCNc1nc2c(S(=O)(=O)c3cccc(Cl)c3)nnn2c2ccsc12 | – | – | – | – | 58
